From patent publication US8202902B2, “Bivalent SMAC mimetics and the uses thereof” (The Regents of the University of Michigan, priority 2006, dated 2012)
Like-named read-outs stand apart in the source and are kept apart here.

Tests used:
[1] = system: SK-OV-3 ovarian cancer cell line; experiment: Apoptosis assay (Annexin V/P.I.), SK-OV-3; format: cell-based; conditions: 1 nM for 12 h
Protocol: Analysis of apoptosis was performed using an apoptosis detection kit (BioVision Research Products, Mountain View, Calif.) according to the manufacturer's protocol. Briefly, cells were treated with Smac mimetics for 12 hours, harvested and washed with ice-cold PBS. Cells were stained with Annexin V-FITC and Propidium iodide (P.I.) for 15 minutes at room temperature in the dark and immediately analyzed by FACS calibur flow cytometer (Becton Dickinson, Erembodegem, Belgium). Cells that were stained Annexin V (+) and P.I. (−) were considered early-stage apoptotic cells. Cells that were stained annexin V (+) and P.I. (+) were considered late-stage apoptotic cells and cells that were stained annexin V (−) and P.I. (+) were considered necrotic cells (FIG. 6).
Treatment with SM-164 at 1 nM for 12 h induced 32%, 33%, and 37% of the MDA-MB-231, SK-OV-3 and MALME-3M cells to undergo apoptosis, respectively (FIGS. 12-14).

[2] = system: HCT116 XIAP^+/+ and XIAP^−/− isogenic cell lines; experiment: HCT116 XIAP+/+ and XIAP-/- isogenic cell lines, Smac mimetics with TNFα; format: cell-based
Text: To complement the siRNA experiments and to more precisely define the role of XIAP in TNFα-dependent apoptosis induction by Smac mimetics, HCT116 XIAP^+/+ and XIAP^−/− isogenic cell lines were used in further studies (Cummins et al., Cancer Res. 64:3006 (2004)). Since both these cell lines were resistant to SM-122 and SM-164 as a single agent (FIG. 41), the role of XIAP using Smac mimetics in combination with TNFα was investigated.
The combination of SM-164 at these concentrations with TNFα was effective in induction of caspase-3 activation, PARP cleavage and in inhibition of cell growth in the XIAP^+/+ cell line (FIG. 42). Although knockout of XIAP sensitized the HCT116 cells to SM-164 in combination with TNFα, the effect was much less than that observed with the combination of SM-122 with TNFα (FIG. 42).

[3] = system: sensitive cancer cell lines (MDA-MB-231, MALME-3M, SK-OV-3); experiment: XIAP knockdown by siRNA with exogenous TNFα, cell death; format: cell-based
Protocol: To investigate the role of XIAP in apoptosis induction by Smac mimetics, XIAP was knocked down in sensitive cancer cell lines. Because XIAP knockdown attenuated the production and secretion of TNFα (FIG. 34) (Gaither et al., Cancer Res. 67:11493 (2007)), exogenous TNFα was added in these XIAP knockdown experiments. […] For example, while SM-122 at 100 nM in combination with TNFα killed 25% of the MDA-MB-231 cells when control siRNA was used, the same combination killed 75% of the cells when XIAP was knocked down.
This is consistent with binding and functional data that indicates SM-164 binds to XIAP with a high affinity and is a potent antagonist of XIAP.

[4] = system: MDA-MB-231 (2LMP) human breast cancer cells; experiment: Cell growth inhibition by cisplatin or mitoxantrone with SH-164; format: cell-based; conditions: 100 nM
Protocol: (§1) Cells were seeded in 96-well flat bottom cell culture plates at a density of 3000 cells/well with a tested compound and incubated at 37° C. in an atmosphere of 95% air and 5% CO2 for 4 days. The rate of cell growth inhibition after treatment with different concentrations of the compound was determined using a WST-8 kit (2-(2-methoxy-4-nitrophenyl)-3-(4-nitrophenyl)-5-(2, 4 disulfophenyl)-2H-tetrazolium monosodium salt; Dojindo Molecular Technologies, Inc., Gaithersburg, Md.). WST-8 was added at a final concentration of 10% to each well, and then the plates were incubated at 37° C. for 2-3 hrs. The absorbance of the samples was measured at 450 nm using a ULTRA Tecan Reader (Molecular Device).

[5] = system: MDA-MB-231 human breast cancer cell line; experiment: Cell growth inhibition, WST-8 assay, MDA-MB-231; format: cell-based
Protocol: as §1, with “The” for “Cells were seeded in 96-well flat bottom cell culture plates at a density of 3000 cells/well with a tested compound and incubated at 37° C. in an atmosphere of 95% air and 5% CO2 for 4 days. The”

[6] = target: T1, XIAP protein containing both BIR2 and BIR3 domains (Homo sapiens, UniProt P98170); experiment: Fluorescence-polarization based binding assay, XIAP BIR2-BIR3
T1 construct: XIAP protein containing both BIR2 and BIR3 domains; made in house

MAMLE-3M cells = experiment: Trypan blue cell viability assay, MAMLE-3M; format: cell-based; conditions: 100 nM, 2 days
Protocol: 0.3×10^6 cells were seeded in 6 well plates and incubated at 37° C. in an atmosphere of 95% air and 5% CO2 without or with tested compound for 2 days. A 1:1 dilution of 0.4% Trypan blue (Invitrogen Corporation) was used to determine cell viability.

cellular XIAP = cellular XIAP (Homo sapiens, UniProt P98170); conditions: cited from earlier work
[7] = system: MDA-MB-231 and SK-OV-3 cancer cell lines; experiment: Role of caspase-8, -3 and -9 (siRNA, caspase inhibitors) in activity of Smac mimetics; format: cell-based; conditions: siRNA
Text: To examine the role of caspase-8, -3 and -9 in apoptosis induction by Smac mimetics, siRNA was employed against these caspases in MDA-MB-231 and SK-OV-3 cancer cell lines.

[8] = system: Sensitive cancer cell lines; experiment: Secreted TNFα in cell culture medium (ELISA), sensitive lines; format: cell-based
Protocol: To explore whether the resistance of cancer cells to Smac mimetics is due to the lack of secreted TNFα, the levels of secreted TNFα were examined. Secreted TNFα concentrations were determined in 200 μl of cell culture medium using the Quantikine HS Human TNFα ELISA kit (R&D Systems). The assay was performed according to the manufacturer's instructions.

[9] = target: T2, Recombinant XIAP containing linker-BIR2-BIR3 (residues 120-356) (Homo sapiens, UniProt P98170); experiment: Cell-free functional assay: antagonism of XIAP inhibition of caspase-3/-7; format: biochemical
T2 construct: Recombinant XIAP containing linker-BIR2-BIR3 (residues 120-356)
T2 sequence (P98170 120-356): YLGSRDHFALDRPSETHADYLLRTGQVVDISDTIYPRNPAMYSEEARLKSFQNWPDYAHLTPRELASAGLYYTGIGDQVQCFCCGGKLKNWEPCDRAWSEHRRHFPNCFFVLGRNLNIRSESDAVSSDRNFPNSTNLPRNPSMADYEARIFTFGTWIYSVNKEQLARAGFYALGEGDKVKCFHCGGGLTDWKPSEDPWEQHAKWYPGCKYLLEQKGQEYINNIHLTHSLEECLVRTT

T1 sequence (P98170 120-356 limits assumed): as the sequence (P98170 120-356) above
cellular XIAP, sequence (P98170 whole entry): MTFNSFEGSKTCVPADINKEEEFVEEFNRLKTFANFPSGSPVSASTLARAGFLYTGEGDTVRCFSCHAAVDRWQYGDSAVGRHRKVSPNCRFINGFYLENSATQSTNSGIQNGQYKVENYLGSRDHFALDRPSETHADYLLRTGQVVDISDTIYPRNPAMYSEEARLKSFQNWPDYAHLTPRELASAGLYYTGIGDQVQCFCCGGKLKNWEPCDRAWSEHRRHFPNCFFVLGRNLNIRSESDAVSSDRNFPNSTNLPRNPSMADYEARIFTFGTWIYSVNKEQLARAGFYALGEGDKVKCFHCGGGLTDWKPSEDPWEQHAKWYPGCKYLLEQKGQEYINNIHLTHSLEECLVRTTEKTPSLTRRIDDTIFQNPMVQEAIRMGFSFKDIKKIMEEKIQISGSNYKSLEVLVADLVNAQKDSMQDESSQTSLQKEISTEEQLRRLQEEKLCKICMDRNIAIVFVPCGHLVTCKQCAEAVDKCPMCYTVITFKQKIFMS

**Q.** What does the source list for CN[C@@H](C)C(=O)N[C@H]1CCCC[C@H]2CC[C@@H](C(=O)N[C@@H](c3ccccc3)c3cn(CCCCc4ccc(CCCCn5cc([C@@H](NC(=O)[C@@H]6CC[C@@H]7CCCC[C@H](NC(=O)[C@H](C)NC)C(=O)N76)c6ccccc6)nn5)cc4)nn3)N2C1=O [SH-164]?
**A.** cells undergoing apoptosis [1]: 33%; caspase-3 activation, PARP cleavage and cell growth inhibition ([2]; 10-100 nM with TNFα, XIAP+/+ cell line): effective; cIAP-1 degradation ([2]; 10-100 nM, both cell lines): effectively induced cIAP-1 degradation; sensitivity as a single agent ([2]; both cell lines): resistant; cell death induction ([3]; 3 and 10 nM, with or without TNFα): effectively induced cell death; sensitization by knockdown of XIAP ([3]; presence of exogenous TNFα): only modestly sensitized; sensitization to growth inhibition by cisplatin and mitoxantrone [4]: sensitized the cells to growth inhibition by both agents; IC50 ([5]; MDA-MB-231, 96 h, 4 days, WST-8, read-out: IC50 cell growth inhibition): 1.4 nM; IC50 ([5]; MDA-MB-231, read-out: IC50 values (nM) In WST-assay (MDA-MB-231)): < 10 nM; more potent than monovalent SM-122 for binding to XIAP [6]: 300 times; cell death (MAMLE-3M cells): at least 70%; more potent than SM-122 in competing off a biotinylated Smac mimetic to cellular XIAP (cellular XIAP): > 100 times; effect of knockdown of caspase-3 and -8 on activity [7]: markedly attenuated; effect of knockdown of caspase-9 on activity [7]: minimal effect; secretion of TNFα [8]: further enhanced; more potent than SM-122 in antagonizing XIAP and promoting caspase activity [9]: 60 times
